Assays:
[1] = system: cerebral ischemia induced in rats (MCAO); assay: Animal cerebral infarct assay (Middle Cerebral Artery Occlusion, MCAO); assay type: in vivo, rat; details: for reduce infarct size: rat; for total infarct volume relative to control animals / total ischemic damage relative to control animals: administered I.V. at the time of MCAO; for cerebral edema relative to control animals: administered at the time of MCAO; for cerebral edema relative to controls / total infarct volume relative to controls / total ischemic damage relative to controls: administered at the time of reperfusion
Excerpt: This assay is used to assess the efficacy of the test agents in protecting the brain against necrosis following cerebral ischemia induced in rats. Middle Cerebral Artery Occlusion (MCAO) is a widely used technique to induce transient focal cerebral ischemia in animal models. […] Furthermore, this model accurately represents the involvement of middle cerebral artery (MCA), the most affected vessel in human stroke, and also allows reperfusion as it happens in humans. MCAO by a two-hour occlusion is used to produce the maximum size of cortical infarction without increased mortality at twenty-four hours.
Male Wistar rats (Hadan, Ind.) weighing 300-350 g were allowed free access to water and commercial rodent diet under standard laboratory conditions. The room temperature was maintained at 20-23° C. and room illumination was on a 12/12-hour light/dark cycle. The rats were acclimatized to the laboratory environment 5 to 7 days prior to the study.
Before surgery, the animals were fasted overnight, but had free access to water. The-rats were anesthetized with 3.0% isoflurane (Aerrane, Front Dodge, Iowa) in […] and the animal's neck was shaved and sterilized before the operation. The animals were subjected to two hours MCAO using a modified intraluminal filament technique. A midline incision on the ventral part of the neck was made to expose external and internal carotid arteries. The right external and common carotid arteries were ligated by a suture (silk 5/0, Carlisle Laboratories, Farmers Branch, Tex.) and the right internal artery was temporarily ligated by a microvascular clip (Fine Science Tool Inc., Foster City, Calif.). A small incision was made in the common carotid artery and a nylon filament, its tip rounded by heating, prepared from a fishing line (Stren Fishing Lines, Wilmington, Del.) was inserted from the right common carotid artery. The filament was advanced into the internal carotid artery 18-20 mm from the point of bifurcation of internal and external arteries and a suture was tightly ligated around the filament. Two hours post occlusion, the animals were re-anesthetized to allow reperfusion for the remaining of the experiment by removal of the filament.
Anesthesia was maintained by inhalation of 3.0% isoflurane in […] throughout the entire procedure. The exterior site of the right femoral vein was shaved and sterilized prior to surgery. A 3 cm incision was made in the right groin region and the femoral vein was isolated. A small incision was made on the femoral vein temporarily ligated with a microvascular clip to introduce and advance a polyethylene (PE-50) catheter (Becton. Dickinson and Co., Sparks, Md.). The catheter was secured in place with suture (silk 5/0, Cailisle Laboratories, Farmers Branch, Tex.). The other end of the catheter was attached to a syringe filled with the heparinized saline for the bolus injection. Using a hemostat a pocket was made subcutaneously on the back of the animal so the PE catheter can be brought up to the exteriorization point at the nape of the neck for either a bolus injection or a continuous injection by an osmotic pump.
A standard rat gavage tube (Popper & Sons Inc, NY) was attached to a 3-cc hypodermic syringe. The animal was held by the shoulder in a vertical position. The feeding tube was placed into the mouth then advanced until it reached the stomach (the approximate insertion length of the tube was measured prior to the feeding). The content of the syringe was slowly delivered, and then the tube is withdrawn.
The animals are sacrificed by CO2 asphyxiation (dry ice) 24 hours post-MCAO. The skull is removed to expose the brain using a small bone cutter and starting from the base of the skull. The brain is removed quickly, rinsed in a chilled saline and placed on a rat brain tissue slicer (ASI instrument, Mich.). Seven 2-mm thick coronal slices are cut from each brain using razor blades. […]

[2] = Evans resorption sterility test for vitamin E; cited from earlier work
[3] = 6 mg/kg, administered IV at MCAO
[4] = 0.60 mg/kg, administered IV at MCAO
[5] = administered at reperfusion (FIG. 2)
[6] = administered at the time of MCAO (FIG. 1)
[7] = at the same concentration, MCAO assay

Row | Structure (SMILES) | reduce infarct size [1, 3] | activity relative to natural alpha-tocopherol [2] | reduce infarct size [1, 4] | reduction of total infarct volume compared with alpha-tocopherol ([1]; MCAO assay) | total infarct volume relative to control animals [1] | total ischemic damage relative to control animals [1] | total infarct size [1, 5] | cerebral edema relative to control animals [1] | total infarct size [1, 6] | cerebral edema relative to controls [1] | total infarct volume relative to controls [1] | total ischemic damage relative to controls [1] | decreased neuronal damage ([1]; drug ranges 0.1-5 mg/kg, IV at MCAO) | reduce infarct size ([1]; 10.00 mg/kg by gavage, 3 hours pre-MCAO) | reduction of tissue edema compared with alpha- or delta-tocopherol [1, 7] | reduction of total infarct volume compared with alpha- or delta-tocopherol [1, 7]
1 | Cc1c(C)c2c(c(C)c1O)CC[C@@](C)(CCC[C@H](C)CCC[C@H](C)CCCC(C)C)O2 (relative stereo) [alpha-tocopherol, [2R-2R*(4R*,8R*)]-3,4-dihydro-2,5,7,8-tetramethyl-2-(4,8,12-trimethyltridecyl)-2H-1-benzopyran-6-ol, reference compound] | 42% | – | – | – | – | – | – | – | – | – | – | – | – | – | – | –
2 | Cc1cc(O)cc2c1O[C@](C)(CCC[C@H](C)CCC[C@H](C)CCCC(C)C)CC2 (relative stereo) [delta-tocopherol, [2R-[2R*(4R*,8R*)]]-3,4-dihydro-2,8-dimethyl-2-(4,8,12-trimethyltridecyl)-2H-1-benzo-pyran-6-ol] | – | one hundredth | 52% | more effective | – | – | – | – | – | – | – | – | – | – | – | –
3 | Cc1c(O)cc2c(c1C)OC(C)(CCC(=O)O)CC2 (stereo not drawn) [gamma-CEHC, 2,7,8-trimethyl-2-(β-carboxy-ethyl)-6-hydroxy chroman] | – | – | – | – | significantly reduced | significantly reduced | able to reduce total infarct size | reduced | able to reduce total infarct size | reduction | reduction | reduction | 50-65% | – | – | –
4 | Cc1c(O)cc2c(c1C)OC(C)(CCCC(C)CCCC(C)CCCC(C)C)CC2 (centres unmarked) [gamma-tocopherol, 3,4-dihydro-2,7,8-trimethyl-2-(4,8,12-trimethyltridecyl)-2H-1-benzyopyran-6-ol] | 82% | – | 81% | – | significantly reduced | significantly reduced | able to reduce total infarct size | significantly reduced | able to reduce total infarct size | reduction | reduction | reduction | – | 77% | more effective | more effective

From US7034054B2, “Methods for the prevention and treatment of cerebral ischemia using non-alpha tocopherols” (Galileo Pharmaceuticals, Inc., priority 2000, dated 2006)
